Reference: patent publication US8648085B2, “1, 5-dihydro-pyrazolo (3, 4-D) pyrimidin-4-one derivatives and their use as PDE9A mudulators for the treatment of CNS disorders” (Boehringer Ingelheim International GmbH, priority 2007, dated 2014)
pIC50: −log10 of the molar value.

Assays:
PDE9A [1] = biological target: T1, PDE9A (Homo sapiens, UniProt O76083); test: PDE enzymatic activity assay (SPA), PDE9A; type: biochemical; design: made in house; host or cells: SF9 insect cells (crude lysate used as enzyme source); conditions: cGMP substrate, for illustrative purposes; for inhibition at 10 µM: 10 micromolar; for pIC50: given as ranges
Experimental: (§1) The PDE enzymatic activity assays were run as SPA, in general according to the protocol of the manufacturer (Amersham Biosciences, product number: TRKQ 7100). As enzyme source, lysate (PBS with 1% Triton X-100 supplemented with protease inhibitors, cell debris removed by centrifugation at 13.000 rpm for 30 min) of SF 9 cell expressing the human PDE of interest was used. The total protein amount included in the assay varied upon infection and production efficacy of the SF9 cells and lay in the range of […].
(§2) In general, the assay conditions were as follows: • total assay volume: 40 μl • protein amount: 0.1-50 ng • substrate concentration (cGMP or cAMP): 20 nM; ˜1 mCi/l • incubation time: 60 min at room temperature • final DMSO concentration: 1%
(§3) The assays were run in 384-well format. The test reagents as well as the enzyme and the substrate were diluted in assay buffer. The assay buffer contained 50 mM Tris, 8.3 mM MgCl2, 1.7 mM EGTA, 0.1% BSA, 0.05% Tween 20; the pH of assay buffer was adjusted to 7.5. In case activity of PDE1C was analysed, 50 nM Calmodulin and 3 mM CaCl2 were included in the assay buffer. In case PDE9 activity was analyzed, the reaction was stopped by applying a PDE9 specific inhibitor (e.g. compounds according to WO2004/099210). PDE1C was analysed with cAMP as substrate, and PDE9 was analyzed with cGMP as substrate.
Calculation of % Inhibition:
The activity of the positive control (minus the negative control=background) is set to 100% and activity in the presence of test compound is expressed relative to these 100%.
Within this setting, an inhibition above 100% might be possible due to the nature of the variation of the positive control within the assay, however, in this case the reported % inhibition had been adjusted to 100%.
(§4) IC50 can be calculated in a conventional way, eventually with the help of GraphPadPrism or other suited software setting the positive control as 100 and the negative control as 0. For calculation of IC50 usually 8 dilutions of the test compound ([…]) are to be selected and tested following the aforementioned protocol.

PDE1C = biological target: T2, PDE1C (Homo sapiens, UniProt Q14123); test: PDE enzymatic activity assay (SPA), PDE1C, cAMP as substrate; type: biochemical; conditions: ratio IC50 PDE1C / IC50 PDE9A; for illustrative purposes
T2 construct: made in house; host or cells: SF9 insect cells (crude lysate used as enzyme source)
Experimental: as §1, §2, §3, §4

Murine PDE9A = biological target: T3, Murine PDE9A (Mus musculus, UniProt O70628); conditions: concentrations below 200 [mu]M; cited from earlier work
T3 sequence (O70628 1-534): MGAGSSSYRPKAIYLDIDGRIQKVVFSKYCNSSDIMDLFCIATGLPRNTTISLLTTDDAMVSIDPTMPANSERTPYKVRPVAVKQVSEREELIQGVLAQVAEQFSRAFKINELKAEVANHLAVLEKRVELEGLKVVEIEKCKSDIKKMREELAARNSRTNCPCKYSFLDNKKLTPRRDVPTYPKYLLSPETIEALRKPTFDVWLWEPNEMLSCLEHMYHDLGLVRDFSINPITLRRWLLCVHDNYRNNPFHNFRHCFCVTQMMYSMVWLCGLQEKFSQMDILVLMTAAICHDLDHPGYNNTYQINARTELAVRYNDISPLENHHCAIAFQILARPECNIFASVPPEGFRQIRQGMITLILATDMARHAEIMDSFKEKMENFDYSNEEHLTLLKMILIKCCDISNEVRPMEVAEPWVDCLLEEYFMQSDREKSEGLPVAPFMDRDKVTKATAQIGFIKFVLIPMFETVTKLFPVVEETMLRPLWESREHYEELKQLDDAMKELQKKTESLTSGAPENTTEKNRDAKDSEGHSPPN

PDE9A [2] = biological target: T1, PDE9A; conditions: concentrations of up to 100 [mu]M; cited from earlier work

T1 sequence (O76083 whole entry): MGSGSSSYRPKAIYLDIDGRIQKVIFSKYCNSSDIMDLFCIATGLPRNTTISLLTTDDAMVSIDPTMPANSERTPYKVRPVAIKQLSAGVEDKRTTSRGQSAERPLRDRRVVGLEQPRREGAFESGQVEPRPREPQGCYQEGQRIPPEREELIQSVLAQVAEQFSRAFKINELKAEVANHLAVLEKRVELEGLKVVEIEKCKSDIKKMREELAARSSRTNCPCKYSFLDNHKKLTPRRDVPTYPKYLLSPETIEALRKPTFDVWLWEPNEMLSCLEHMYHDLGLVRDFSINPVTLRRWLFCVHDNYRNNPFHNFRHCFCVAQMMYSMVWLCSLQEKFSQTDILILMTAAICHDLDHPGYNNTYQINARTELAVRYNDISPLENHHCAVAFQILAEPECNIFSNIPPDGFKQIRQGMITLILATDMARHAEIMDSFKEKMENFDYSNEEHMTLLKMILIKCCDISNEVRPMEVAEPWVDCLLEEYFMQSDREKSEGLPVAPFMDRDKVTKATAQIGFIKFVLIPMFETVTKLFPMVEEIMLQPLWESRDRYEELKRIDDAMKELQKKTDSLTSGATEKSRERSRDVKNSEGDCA

| Compound | inhibition at 10 µM (PDE9A [1]) [%] | pIC50 (PDE9A [1]) | Selectivity = IC50 PDE 1C/IC50 PDE9A (both nanomolar) (PDE1C) | inhibition of murine PDE9A (Murine PDE9A) | inhibition on the isolated enzyme (human PDE9A) (PDE9A [2]) |
| --- | --- | --- | --- | --- | --- |
| O=c1[nH]c(Cc2ccccc2OC(F)(F)F)nc2c1cnn2-c1ccc(F)cc1O [Example 31, 1-(2-Hydroxy,4-fluoro-phenyl)-6-(2-trifluoromethoxy-benzyl)-1,5-dihydro-pyrazolo[3,4-d]pyrimidin-4-one] | 82 | < 6.30 | 8 | – | – |
| CC(C)Cn1c(=O)n(C)c(=O)c2[nH]cnc21 [IBMX] | – | – | – | not inhibited | no inhibition |
| CC(=O)Nc1ccc(-c2c[nH]c(=O)cn2)cc1 [SKF94120] | – | – | – | – | no inhibition |
| OCCN(CCO)c1nc(N2CCCCC2)c2nc(N(CCO)CCO)nc(N3CCCCC3)c2n1 [dipyridamole] | – | – | – | – | no inhibition |
| COc1ccc(C2CNC(=O)C2)cc1OC1CCCC1 (stereo not drawn) [rolipram] | – | – | – | – | no inhibition |
| CCOC(=O)C1=C[C@]2(CC)CCCN3CCc4c(n1c1ccccc41)[C@@H]32 [vinpocetine] | – | – | – | – | no inhibition |

Now from value to compound, other results behind:

| inhibition at 10 µM (PDE9A [1]) [%] | pIC50 (PDE9A [1]) | Selectivity = IC50 PDE 1C/IC50 PDE9A (both nanomolar) (PDE1C) | Compound | inhibition of murine PDE9A (Murine PDE9A) | inhibition on the isolated enzyme (human PDE9A) (PDE9A [2]) |
| --- | --- | --- | --- | --- | --- |
| 91 | 6.30 to 8.00 | 11 | O=c1[nH]c(Cc2ccccc2OC(F)(F)F)nc2c1cnn2-c1cnccc1C(F)(F)F [Example 32, 6-(2-Trifluoromethoxy-benzyl)-1-(4-trifluoromethyl-pyridin-3-yl)-1,5-dihydro-pyrazolo[3,4-d]pyrimidin-4-one] | – | – |
| 89 | 6.30 to 8.00 | 4 | O=c1[nH]c(Cc2ccccc2OC(F)(F)F)nc2c1cnn2-c1cccnc1 [Example 33, 6-(2-Trifluoromethoxy-benzyl)-1-(pyridin-3-yl)-1,5-dihydro-pyrazolo[3,4-d]pyrimidin-4-one] | – | – |
| 93 | 6.30 to 8.00 | 10 | O=C(c1ccc(Cl)c(-n2ncc3c(=O)[nH]c(Cc4ccccc4OC(F)(F)F)nc32)c1)N1CCCCC1 [Example 35, 1-[2-Chloro-5-(piperidine-1-carbonyl)-phenyl]-6-(2-trifluoromethoxy-benzyl)-1,5-dihydro-pyrazolo[3,4-d]pyrimidin-4-one] | – | – |
| 98 | 6.30 to 8.00 | 54 | CN(C)C(=O)c1ccc(Cl)c(-n2ncc3c(=O)[nH]c(Cc4ccccc4OC(F)(F)F)nc32)c1 [Example 36, 1-[2-Chloro-5-(dimethylamino-carbonyl)-phenyl]-6-(2-trifluoromethoxy-benzyl)-1,5-dihydro-pyrazolo[3,4-d]pyrimidin-4-one] | – | – |
| 99 | 6.30 to 8.00 | 27 | O=C(c1ccc(Cl)c(-n2ncc3c(=O)[nH]c(Cc4ccccc4OC(F)(F)F)nc32)c1)N1CCOCC1 [Example 37, 1-[2-Chloro-5-(N-morpholino-carbonyl)-phenyl]-6-(2-trifluoromethoxy-benzyl)-1,5-dihydro-pyrazolo[3,4-d]pyrimidin-4-one] | – | – |
| 92 | < 6.30 | 9 | O=C(c1cccc(-n2ncc3c(=O)[nH]c(Cc4ccccc4OC(F)(F)F)nc32)c1)N1CCOCC1 [Example 38, 1-[3-(N-morpholino-carbonyl)-phenyl]-6-(2-trifluoromethoxy-benzyl)-1,5-dihydro-pyrazolo[3,4-d]pyrimidin-4-one] | – | – |
| 97 | 6.30 to 8.00 | 4 | O=c1[nH]c(Cc2ccccc2OC(F)(F)F)nc2c1cnn2-c1ncc(F)cc1F [Example 39, 6-(2-Trifluoromethoxy-benzyl)-1-(3,5-difluoro-pyridin-2-yl)-1,5-dihydro-pyrazolo[3,4-d]pyrimidin-4-one] | – | – |
